The values below come from publication PMC11591096, “Hit Identification and Functional Validation of Novel Dual Inhibitors of HDAC8 and Tubulin Identified by Combining Docking and Molecular Dynamics Simulations” (Antioxidants, 2024).

Bounds are passed on as bounds.

For this assay, the target named is T1, HDAC8 (Homo sapiens, UniProt Q9BY41).
T1 construct: purchased enzyme (VinciBiochem)
T1 sequence (Q9BY41 1-377): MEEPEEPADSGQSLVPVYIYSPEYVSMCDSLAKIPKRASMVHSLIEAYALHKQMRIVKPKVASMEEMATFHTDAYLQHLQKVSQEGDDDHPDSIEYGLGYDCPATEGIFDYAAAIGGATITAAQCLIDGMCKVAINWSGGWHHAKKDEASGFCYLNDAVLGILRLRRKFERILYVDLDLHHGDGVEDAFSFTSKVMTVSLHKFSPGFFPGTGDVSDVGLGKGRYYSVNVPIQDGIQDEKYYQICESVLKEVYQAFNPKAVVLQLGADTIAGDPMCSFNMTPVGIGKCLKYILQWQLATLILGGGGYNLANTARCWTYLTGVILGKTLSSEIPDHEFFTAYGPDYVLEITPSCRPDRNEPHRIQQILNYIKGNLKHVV
The experiment in a line: HDAC-Glo I/II bioluminogenic deacetylase assay. Format: biochemical. To be noted: read-out: HDAC8IC50 (μM) ^a. From the text:
HDAC-Glo I/II bioluminogenic deacetylase assay on HDAC8

Turning to `Cc1cc(OCC(=O)N2CCC(C(N)=O)CC2)c2c(C)c(Cc3ccccc3)c(=O)oc2c1` [CNP0217284], the IC50 was above 300 µM.
